Laboratory results reported in the supplement of paper PMC10307832.

Experiments:
Experiment in all cases: relative viability (nuclei count vs DMSO), 5 days (fraction); higher = more cells survive
[1] = tested on: 201T
In short: (§1)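 Relative viability divides the nuclei count in treated wells by that in vehicle wells. Lung cancer cell lines were seeded in 1536-well plates, dosed by pin tool the next day, and fixed and stained after 5 days in one step with final 0.05% Triton X-100, 1% formaldehyde and 1 ug/ml Hoechst. Dosing was a single drug or a fixed anchor-drug dose plus five library-drug doses (not always all listed) in √10 steps, and values are medians of duplicate plates imaged at 4×.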

[2] = tested on: ABC-1
In short: as §1

[3] = tested on: CAL-12T
In short: as §1

[4] = tested on: COR-L23
In short: as §1

[5] = tested on: HCC-44
In short: as §1

[6] = tested on: HOP-62
In short: as §1

[7] = tested on: LC-2-ad
In short: as §1

[8] = tested on: LCLC-103H
In short: as §1

[9] = tested on: NCI-H1355
In short: as §1

[10] = tested on: NCI-H1395
In short: as §1

[11] = tested on: NCI-H1651
In short: as §1

O=C(O)CCCCC(CCSCc1ccccc1)SCc1ccccc1 (stereo not given) [CPI-613] + C[C@]1(O)C[C@@H](c2nc(-c3ccc4ccc(-c5ccccc5)nc4c3)c3c(N)nccn32)C1 [Linsitinib] (partner 1 µM)
relative viability ([1]; first compound 5 µM): 0.98
relative viability ([1]; first compound 15.81 µM): 0.969
relative viability ([1]; first compound 50 µM): 1.01
relative viability ([1]; first compound 158.11 µM): 0.864
relative viability ([1]; first compound 500 µM): 0.8
relative viability ([2]; first compound 5 µM): 0.744
relative viability ([2]; first compound 15.81 µM): 1.02
relative viability ([2]; first compound 50 µM): 0.815
relative viability ([2]; first compound 158.11 µM): 0.254
relative viability ([2]; first compound 500 µM): 0.169
relative viability ([3]; first compound 5 µM): 0.865
relative viability ([3]; first compound 15.81 µM): 0.634
relative viability ([3]; first compound 50 µM): 0.561
relative viability ([3]; first compound 158.11 µM): 0.642
relative viability ([3]; first compound 500 µM): 0.62
relative viability ([4]; first compound 5 µM): 0.851
relative viability ([4]; first compound 15.81 µM): 0.918
relative viability ([4]; first compound 50 µM): 0.779
relative viability ([4]; first compound 158.11 µM): 0.334
relative viability ([4]; first compound 500 µM): 0.0236
relative viability ([5]; first compound 5 µM): 0.625
relative viability ([5]; first compound 15.81 µM): 0.666
relative viability ([5]; first compound 50 µM): 0.717
relative viability ([5]; first compound 158.11 µM): 0.393
relative viability ([5]; first compound 500 µM): 0.0377
relative viability ([6]; first compound 5 µM): 1.05
relative viability ([6]; first compound 15.81 µM): 1.05
relative viability ([6]; first compound 50 µM): 0.863
relative viability ([6]; first compound 158.11 µM): 0.611
relative viability ([6]; first compound 500 µM): 0.0257
relative viability ([7]; first compound 5 µM): 0.805
relative viability ([7]; first compound 15.81 µM): 0.847
relative viability ([7]; first compound 50 µM): 0.738
relative viability ([7]; first compound 158.11 µM): 0.251
relative viability ([7]; first compound 500 µM): 0.0081
relative viability ([8]; first compound 5 µM): 1.11
relative viability ([8]; first compound 15.81 µM): 1.01
relative viability ([8]; first compound 50 µM): 1.08
relative viability ([8]; first compound 158.11 µM): 1
relative viability ([8]; first compound 500 µM): 0.866
relative viability ([9]; first compound 5 µM): 0.78
relative viability ([9]; first compound 15.81 µM): 0.825
relative viability ([9]; first compound 50 µM): 0.856
relative viability ([9]; first compound 158.11 µM): 0.477
relative viability ([9]; first compound 500 µM): 0.103
relative viability ([10]; first compound 5 µM): 1.09
relative viability ([10]; first compound 15.81 µM): 0.961
relative viability ([10]; first compound 50 µM): 1.08
relative viability ([10]; first compound 158.11 µM): 1.1
relative viability ([10]; first compound 500 µM): 1.04
relative viability ([11]; first compound 5 µM): 0.968
relative viability ([11]; first compound 15.81 µM): 0.92
relative viability ([11]; first compound 50 µM): 0.836
relative viability ([11]; first compound 158.11 µM): 0.316
relative viability ([11]; first compound 500 µM): 0.133
